Patent US10632227B2, “Method of making injectable cements” (Wayne State University, priority 2015, dated 2020)

System: S. aureus
Assay: modified MIC assay, bactericidal activity of eluents from CPP mix cements
Format: cell-based
Details: EM eluted from cement or gel
Method: A modified minimum inhibitory concentration (MIC) assay was developed to measure the bactericidal activity of erythromycin eluted from the CPP mix cements. Briefly, a Mueller-Hinton broth inoculated with S. aureus […] was cultured at about 37° C. until an absorbance reading of about 0.08 to about 0.1 was attained at 625 nm, corresponding to roughly 1-2×10^8 CFU/ml. Then about 200 μl of eluents from CPP mix cements collected at various time points was added into about 800 μL of the bacterial broth and incubation continued at about 37° C. for about 6 hours, followed by OD measurement at about 625 nm. The MIC was determined by the lowest concentration that inhibited the growth of bacterium as characterized by a lack of turbidity and lower OD readings. Bacterial culture in Mueller Hinton broth without erythromycin was included as a positive control. Bactericidal activity assays were conducted in duplicate for both the blank and testing samples.

CC[C@H]1OC(=O)[C@H](C)[C@@H](O[C@H]2C[C@@](C)(OC)[C@@H](O)[C@H](C)O2)[C@H](C)[C@@H](O[C@@H]2O[C@H](C)C[C@H](N(C)C)[C@H]2O)[C@](C)(O)C[C@@H](C)C(=O)[C@H](C)[C@@H](O)[C@]1(C)O [EM, erythromycin]
bactericidal activity / stability of eluted EM: stable and active
